Biological target: bacterial protein synthesis (S30 extract from quinolone-succeptable Streptococcus pneumoniae ATCC 46919)
Assay: Translation assay, firefly luciferase reporter system with S30 Streptococcus pneumoniae extract
Assay type: biochemical
Conditions: cell-free S30 Streptococcus pneumoniae extract, luciferase mRNA; read-out: IC50, concentration which caused 50% inhibition of bacterial protein synthesis
Protocol: Bacterial protein synthesis inhibitory activity of the compounds and the aformentioned commercially-available antibacterials was determined by translation assays performed using the firefly luciferase reporter system described by Murray et al., (2001), “Staphylococcus aureus Cell Extract Transcription-Translation Assay: Firefly Luciferase Reporter System for Evaluating Protein Translation Inhibitors,” Antimicrob. Agents Chemother. 45(6): 1900-1904, replacing the Staphylococcus aureus S30 extract described therein with S30 Streptococcus pneumoniae extract from quinolone-succeptable Streptococcus pneumoniae ATCC 46919, and replacing plasmid coding for the luciferase gene with mRNA (encoding produced by in vitro transcription from the plasmid pAS10rbs3) which encoded the luciferase gene with an upstream Streptococcus pneumoniae promoter and Shine-Dalgarno site.

SMILES: CC(=O)NC[C@H]1CN(c2ccc(N3CCOCC3)c(F)c2)C(=O)O1 [Linezolid]
- IC50: ~3 µM

Reference: patent publication US8163769B2, “Antibacterial compounds” (Abbott Laboratories, priority 2002, dated 2012)
